Experimental findings from patent US11479561B2, “Tetrahydroisoquinoline derivatives” (Cytokinetics, Incorporated, priority 2016, dated 2022) are described below.

SMILES strings stand for the structures.

The assay relates to rabbit skeletal myofibrils (approximately 90% fast fibers). Kind of assay: Activation of fast skeletal myofibrils (PUMA coupled-enzyme ATPase assay). It counts as biochemical. Conditions: concentration at which the compound increased the enzymatic activity by 40%; calcium level pCa25. How it is done:
Preparation of fast skeletal myofibrils: Rabbit skeletal myofibrils were prepared based upon the method of Herrmann et al. (Biochem. 32(28):7255-7263(1993). Myofibrils were prepared from rabbit psoas muscle purchased from Pel-Freez Biologicals (Arkansas) within 2 days of ordering, stored on ice. Minced muscle was homogenized in 10 volumes of ice-cold “standard” buffer (50 mM Tris, pH 7.4, 0.1 M KOAc, 5 mM KCl, 2 mM dithiothreitol (DTT), 0.2 mM phenylmethylsulfonyl fluoride (PMSF), 10 μM leupeptin, 5 μM pepstatin, and 0.5 mM sodium azide) containing 5 mM ethylenediaminetetraacetic acid (EDTA) and 0.5% Triton X-100 using an Omni-Macro homogenizer. Myofibrils were recovered by low speed centrifugation (3000 rpm for 10 minutes) and washed 2 times in the Triton X-100 containing buffer to ensure removal of cellular membrane. Following the Triton washes, myofibrils were washed 3 times in “standard” buffer containing 2 mM magnesium acetate. A final wash in assay buffer (12 mM piperazine-1,4-bis(2-ethanesulfonic acid) (PIPES), pH 6.8, 60 mM KCl, 1 mM DTT) was performed and brought to 10% sucrose for flash freezing in liquid nitrogen and storage at −80° C.
Activation of Fast Skeletal Myofibrils: Fast fiber activators were identified by Measuring the enzymatic activity of muscle myofibril preparations using the proprietary PUMA (trademark) (see, e.g., U.S. Pat. Nos. 6,410,254, 6,743,599, 7,202,051, and 7,378,254) assay system. Myofibril preparations consisted of rabbit skeletal muscle (approximately 90% fast fibers) that had been mechanically homogenized and washed with a detergent (Triton X-100) to remove cellular membranes. This preparation retained all of the sarcomeric components in a native conformation and the enzymatic activity was still regulated by calcium. Compounds were tested using a myofibril suspension and a level of calcium sufficient to increase enzymatic activity of the myofibrils to 25% of their maximal rate (termed pCa25). Enzymatic activity was tracked via a pyruvate kinase and lactate dehydrogenase-coupled enzyme system. This assay regenerates myosin-produced ADP into ATP by oxidizing NADH, producing an absorbance change at 340 nm. The buffering system was 12 mM PIPES, 2 mM MgCl2, 1 mM DTT at pH 6.8 (PM12 buffer).
Regarding `C[C@@H](O)CC1(C)C(=O)NC2(COC2)c2ccc(Cl)cc21` (mixture of isomers) [167a, rac-(4R)-6-chloro-4-[(2R)-2-hydroxypropyl]-4-methyl-2H-spiro[isoquinoline-1,3′-oxetan]-3(4H)-one], the AC1.4 was determined as 3.293 µM. Then `C[C@H](O)CC1(C)C(=O)NC2(COC2)c2ccc(Cl)cc21` (mixture of isomers) [167b, rac-(4R)-6-chloro-4-[(2S)-2-hydroxypropyl]-4-methyl-2H-spiro[isoquinoline-1,3′-oxetan]-3(4H)-one], with 0.869 µM. Take `Cc1ccc2c(n1)C(C)(CC(F)F)C(=O)NC21COC1` (stereo not shown) [92a]: the AC1.4 stood at 1.318 µM. As to `Cc1ccc2c(n1)C(C)(CC(F)F)C(=O)NC21COC1` (stereo not shown) [92b], the AC1.4 is 0.400 µM. Consider `CC1(C)NC(=O)C(C)(Cn2cccn2)c2nc(C#N)ccc21` (stereo not shown) [134a], for which the AC1.4 is 0.626 µM. `CC1(C)NC(=O)C(C)(Cn2cccn2)c2nc(C#N)ccc21` (stereo not shown) [134b]: the AC1.4 worked out at 4.986 µM. Consider `CCC1(CC)C(=O)NC(C)(C)c2cc(Cl)c(C#N)cc21` [compound 34, 7-chloro-4,4-diethyl-1,1-dimethyl-3-oxo-1,2,3,4-tetrahydroisoquinoline-6-carbonitrile], for which the AC1.4 was found to be 0.229 µM. On to `CCC1(CC)C(=O)NC2(COC2)c2ccc(Cl)cc21` [compound 43], for which the AC1.4 worked out at 0.051 µM. As for `CC1(C)NC(=O)C2(CCOCC2)c2cc(Br)ccc21` [compound 44], the AC1.4 was determined as 5.982 µM. Then `CCC1(CC)C(=O)NC(C)(C)c2ccc(C)cc21` [compound 46], with 0.106 µM; and `CCC1(CC)C(=O)NC(C)(C)c2ccc(Cl)cc21` [compound 48], with less than 0.077 µM; and `CCC1(CC)C(=O)NC(C)(C)c2c(OC)cc(OC)cc21` [compound 50], with 0.763 µM. Take `CC1(C)NC(=O)C(C)(C)c2cc(Br)ccc21` [compound 51]: the AC1.4 is 0.093 µM. `CCC1C(=O)NC(C)(C)c2ccc(Br)cc21` (stereo not shown) [compound 53]: the AC1.4 came out at 0.711 µM. Regarding `CCC1(CCCO)C(=O)NC(C)(C)c2ccc(Br)cc21` (stereo not shown) [compound 54], the AC1.4 came out at 0.596 µM. Then `CC1(C)NC(=O)C(C)(C)c2cc(C#N)cnc21` [compound 58], with 5.040 µM. Take `CCC1(CC)C(=O)NC(C)(C(F)F)c2ccc(C#N)cc21` (stereo not shown) [compound 59]: the AC1.4 turned out to be 0.381 µM. In the case of `C=CCC1(C)C(=O)NC(C)(C)c2ccc(C#N)nc21` (stereo not shown) [compound 60], the AC1.4 worked out at 0.252 µM. On to `CC1(C)NC(=O)C2(CCOCC2)c2cc(C#N)ccc21` [compound 62], for which the AC1.4 was greater than 39.200 µM. For `CCC1(CC)C(=O)NC(C)(C)c2c(C#N)cccc21` [compound 63], the AC1.4 was 3.707 µM. For the molecule `CCN(CC)C1C(=O)NC(C)(C)c2ccc(Br)cc21.Cl` (stereo not shown) [compound 65], the AC1.4 is 1.052 µM. Consider `CN(c1ccccc1)C1C(=O)NC(C)(C)c2ccc(Br)cc21.Cl` (stereo not shown) [compound 66], for which the AC1.4 amounted to 2.502 µM. Regarding `CCC1(CC)C(=O)NC2(COC2)c2ncc(Cl)nc21` [compound 68], the AC1.4 stood at 0.830 µM.

`CCC1(CC)C(=O)NC(C)(C)c2ncc(Cl)nc21` [compound 69]: the AC1.4 came out at 0.485 µM. Consider `CC1(C)NC(=O)C(C)(Cn2cccn2)c2nc(Cl)ccc21` (stereo not shown) [compound 70], for which the AC1.4 is 0.522 µM. For the molecule `CCC1(C)C(=O)NC(C)(C)c2ccc(Cl)nc21` (stereo not shown) [compound 71], the AC1.4 is 0.367 µM.

Regarding `CC1(Cn2cccn2)C(=O)NC2(COC2)c2ccc(Cl)cc21` (stereo not shown) [compound 75], the AC1.4 worked out at 1.174 µM. Take `C=CCC1(C)C(=O)NC(C)(C)c2ccc(Cl)nc21` (stereo not shown) [compound 76]: the AC1.4 amounted to 0.223 µM. Consider `C=CCC1(C)NC(=O)C(CC)(CC)c2nc(Cl)ccc21` (stereo not shown) [compound 77], for which the AC1.4 turned out to be 7.898 µM.

For the molecule `CCC1(Cc2ccccc2Cl)C(=O)NC(C)(C)c2ccc(Br)cc21` (stereo not shown) [compound 79], the AC1.4 is less than 0.077 µM.

Turning to `CCC1(Cc2cccc(Cl)c2)C(=O)NC(C)(C)c2ccc(Br)cc21` (stereo not shown) [compound 80], the AC1.4 amounted to 0.112 µM. `CCC1(CCF)C(=O)NC(C)(C)c2ccc(Br)cc21` (stereo not shown) [compound 81]: the AC1.4 amounted to 0.098 µM. As to `CCC1(Cc2ccc(Cl)cc2)C(=O)NC(C)(C)c2ccc(Br)cc21` (stereo not shown) [compound 82], the AC1.4 is 0.084 µM. For `CCC1(CC(F)F)C(=O)NC(C)(C)c2ccc(Br)cc21` (stereo not shown) [compound 83], the AC1.4 was less than 0.077 µM. In the case of `CCC1(CC)C(=O)NC(C)(C)c2ccc(Cl)nc21` [compound 84], the AC1.4 worked out at 0.401 µM. Then `CCC1(CC(F)F)C(=O)NC2(COC2)c2ccc(C(F)F)nc21` (stereo not shown) [compound 88], with 0.203 µM; and `CC1(C)C(=O)NC2(COC2)c2ccc(Cl)nc21` [compound 90], with 2.555 µM. `CCC1(CC(=O)O)C(=O)NC(C)(C)c2ccc(Br)cc21` (stereo not shown) [compound 91]: the AC1.4 stood at 20.240 µM.

`C=Cc1cnc2c(n1)C(CC)(CC)C(=O)NC21COC1` [compound 94]: the AC1.4 amounted to 8.994 µM. Then `Cc1ccc2c(n1)C(C)(CC(F)F)C(=O)NC21COC1` (stereo not shown) [compound 95], with 0.720 µM. `CCC1(CCOC)C(=O)NC2(COC2)c2ccc(C)nc21` (stereo not shown) [compound 96]: the AC1.4 amounted to 5.393 µM. Then `CCC1(CC)C(=O)NC(C)(C)c2cc(C)c(C#N)cc21` [compound 97], with 0.332 µM; and `CCC1(CC)C(=O)NC(C)(C)c2cc(C3CC3)c(C#N)cc21` [compound 98], with 2.085 µM. For the molecule `CCC1(CCO)C(=O)NC2(COC2)c2ccc(C)nc21` (stereo not shown) [compound 102], the AC1.4 is 8.474 µM. As to `CCC1(CCO)C(=O)NC2(COC2)c2ccc(OC(F)F)nc21` (stereo not shown) [compound 105], the AC1.4 turned out to be 4.313 µM.

For the molecule `CC1(C)NC(=O)C(C)(Cn2cccn2)c2nc(C#N)ccc21` (stereo not shown) [compound 107], the AC1.4 turned out to be 1.080 µM. `CC1(C)NC(=O)C(C)(Cc2cn[nH]c2)c2nc(C#N)ccc21` (stereo not shown) [compound 110]: the AC1.4 turned out to be 3.478 µM.

Regarding `C#CCC1(C)C(=O)NC(C)(C)c2ccc(C#N)nc21` (stereo not shown) [compound 111], the AC1.4 was found to be 0.321 µM. As for `CCC1(CCOC)C(=O)NC2(COC2)c2ccc(C#N)nc21` (stereo not shown) [compound 112], the figure is 1.437 µM; as for `CCC1(CCO)C(=O)NC(C)(C)c2ccc(Br)cc21` (stereo not shown) [compound 115], 0.474 µM; as for `CCC1(CC)C(=O)NC(C)(C)c2cc(Br)c(C#N)cc21` [compound 116], 0.274 µM. Regarding `CC(C)(O)CC1(C)C(=O)NC2(COC2)c2ccc(Cl)cc21` (stereo not shown) [compound 137, 6-chloro-4-(2-hydroxy-2-methylpropyl)-4-methyl-2H-spiro[isoquinoline-1,3′-oxetan]-3(4H)-one], the AC1.4 was 2.365 µM. For the molecule `CC1(C)NC(=O)C(c2ccccc2)c2ccccc21` (stereo not shown) [compound 138], the AC1.4 amounted to 7.955 µM. With `CCC1(CC(=O)NCc2ccccc2)C(=O)NC(C)(C)c2ccc(Br)cc21` (stereo not shown) [compound 139], the AC1.4 came out at 30.805 µM. For `CC1(C)NC(=O)C(CCF)(CCF)c2cc(Br)ccc21` [compound 140], the AC1.4 is 0.199 µM. As for `CCC1(CC)C(=O)NC(C)(C)c2ccc(Cl)c(F)c21` [compound 141], the AC1.4 was less than 0.077 µM. As to `CC1(C)C(=O)NC2(COC2)c2ccc(C#N)nc21` [compound 142], the AC1.4 came out at 2.377 µM. `CCC1(CC)C(=O)NC2(COC2)c2ccc(COC(F)F)nc21` [compound 143, 2-[(difluoromethoxy)methyl]-8,8-diethyl-6H-spiro[1,6-naphthyridine-5,3′-oxetan]-7(8H)-one]: the AC1.4 turned out to be 2.830 µM. Consider `CCC1(CC(F)F)C(=O)NC2(COC2)c2ccc(OC)nc21` (stereo not shown) [compound 145], for which the AC1.4 was 0.581 µM. `CCC1(C)C(=O)NC2(COC2)c2ccc(OC(F)F)nc21` (stereo not shown) [compound 146]: the AC1.4 came to 0.283 µM. With `COc1ccc2c(n1)C(C)(C)C(=O)NC21COC1` [compound 147], the AC1.4 turned out to be 2.346 µM. On to `CC1(C)NC(=O)C(C)(C)c2nc(C#N)cnc21` [compound 153], for which the AC1.4 amounted to 1.590 µM. With `CC1(C)NC(=O)C2(CCN(S(C)(=O)=O)CC2)c2cc(Cl)ccc21` [compound 155, 6-chloro-1,1-dimethyl-1′-(methylsulfonyl)-1,2-dihydro-3H-spiro[isoquinoline-4,4′-piperidin]-3-one], the AC1.4 worked out at 8.340 µM. Then `COC(=O)N1CCC2(CC1)C(=O)NC(C)(C)c1ccc(Cl)cc12` [compound 156], with 5.881 µM.
